Laboratory results taken from patent publication US20020182635A1, “Methods of screening for LTRPC2 modulators” (priority 2000, published 2002).
Where two headings read alike, the source gives them in different places.

Legend:
[1] = biological target: T1, LTRPC2 NUDT9-H (Homo sapiens, UniProt O94759); assay: Nudix-type hydrolase activity towards a panel of substrates, NUDT9-H region of LTRPC2; type: biochemical; conditions: purified bacterially expressed NUDT9-H of LTRPC2
T1 construct: an artificial start codon, amino acids 1197-1503, a stop codon; artificial initiating Met (artificial start codon) (N); made in house; host or cells: E. coli BL21 (DE3), pET-24d
Method: (§1) FIG. 2(B) is a characterization of the enzymatic activity of NUDT9 and NUDT9-H. Purified preparations of NUDT9 and NUDT9-H were screened for Nudix-type activity towards a panel of substrates as described in the methods section. Km and Vmax were calculated by non-linear regression analysis of Lineweaver-Burke plots.
(§2) BL21 (DE3) cells containing the respective expression plasmids were grown at 37° C. in LB broth on a shaker to an A600 of about 0.6 and induced by the addition of isopropyl-b-D-thiogalactopyranoside to a concentration of 1 mM. The cells were grown for an additional 4 h, harvested, washed by suspension in isotonic saline, centrifuged in pre-weighed centrifuge tubes, and the packed cells were stored at −80 ° C. […] In the case of NUDT9, enzyme was extracted in the freeze-thaw fraction and ammonium sulfate was added to 35% final concentration. The precipitate was discarded after centrifugation and ammonium sulfate was added to the supernatant to a final concentration of 50%. The precipitate was collected by centrifugation, dissolved, then chromatographed on a gel filtration column (Sephadex G-100). The active fractions containing the majority of the enzyme were pooled, concentrated by centrifugation in an Amicon Centriprep30, dialyzed, and chromatographed on DEAE-sepharose. The purified enzyme was concentrated from the pooled active fractions again using an Amicon Centriprep30. For the NUDT9 homology region of LTRPC2, the protein was extracted in the freeze-thaw fraction and ammonium sulfate was added to 35% final concentration and centrifuged. The precipitate was dissolved, dialyzed, and chromatographed on DEAE-sepharose. The purified enzyme was concentrated from the pooled active fractions by precipitation with 70% ammonium sulfate.
(§3) Enzyme Assay: Enzyme velocities were quantified by measuring the conversion of a phosphatase-insensitive substrate, ADPR, to the phosphatase-sensitive products, AMP and ribose-5-phosphate. The liberated inorganic orthophosphate was measured by the procedure of Ames and DubinENRfu^27. The standard incubation mixture ([…]) contained 50 mM Tris-Cl, pH 9.0, 16 mM MgCl2, 2 mM ADPR, 0.2-1 milliunitsof enzyme and 4 units of alkaline intestinal phosphatase. After 30 min at 37° C., the reaction was terminated by the addition of EDTA and inorganic orthophosphate was measured. A unit of enzyme hydrolyzes […] of substrate per min under these conditions. Note that 2 moles of phosphate are liberated per mole of ADPR hydrolyzed. Product determination: The standard assay mixture (minus alkaline intestinal phosphatase) was incubated for 30 min at 37° C. and terminated by the addition of […] of a mixture of four parts of Norit (20% packed volume) and one part of 7% HClO4 to remove adenine-containing nucleotides. After centrifugation, […] was adjusted to an alkaline pH and incubated for an additional 30 min at 37° C. with alkaline intestinal phosphatase to hydrolyze the ribose-5-phosphate formed.

[2] = biological target: T2, NUDT9 (Homo sapiens, UniProt Q9BW91); assay: Nudix-type hydrolase activity towards a panel of substrates, NUDT9; type: biochemical; conditions: purified bacterially expressed NUDT9
T2 construct: made in house; host or cells: E. coli BL21 (DE3), pET-24d
T2 sequence (Q9BW91 47-350): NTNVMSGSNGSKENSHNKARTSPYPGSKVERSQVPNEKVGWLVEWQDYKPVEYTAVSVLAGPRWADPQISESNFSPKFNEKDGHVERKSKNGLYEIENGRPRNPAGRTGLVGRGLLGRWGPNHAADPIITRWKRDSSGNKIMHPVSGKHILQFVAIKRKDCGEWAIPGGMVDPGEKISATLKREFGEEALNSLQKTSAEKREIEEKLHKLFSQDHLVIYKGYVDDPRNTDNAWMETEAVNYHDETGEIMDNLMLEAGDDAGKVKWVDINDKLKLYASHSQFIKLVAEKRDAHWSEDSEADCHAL
Method: as §1, §2, §3

[3] = test system: ADPR-dependent current (IADPR) in human U937 monocytes; assay: Endogenous ADPR-dependent current (IADPR), whole-cell patch-clamp in U937 monocytes; type: cell-based; conditions: U937 cells; for EC50: read-out: apparent EC50 for IADPR
Method: FIG. 5 depicts the characterization of endogenous ADPR-dependent current(IADPR) in human U937 monocytes. […] In the right lane, the blot identifies LTRPC2 mRNA in native U937 cells. […] FIG. 5(B) depicts the temporal development of inward currents in U937 cells at −80 mV activated by different intracellular concentrations of ADPR in the presence of 10 mM BAPTA (n=4-11 each). FIG. 5(C) depicts the temporal development of inward currents in U937 cells at −80 mV activated by different intracellular concentrations of ADPR while [Ca^2+]i was buffered to 100 nM (n=5-7 each). FIG. 5(D) depicts the temporal development of inward currents in U937 cells at −80 mV activated by different intracellular concentrations of ADPR in the absence of exogenous buffers (n=5-9 each). […] Representative current record in response to a voltage ramp ranging from −100 to +100 mV over 50 ms. The record was obtained 100 s after whole-cell establishment from a cell perfused with 100 μM ADPR under unbuffered conditions.
For patch-clamp experiments, cells grown on coverslips were transferred to the recording chamber and kept in a standard modified Ringer's solution of the following composition (in mM): NaCl 145, KCl 2.8, CaCl2 1, MgCl2 2, glucose 10, Hepes-NaOH 10, pH 7.2. Intracellular pipette-filling solutions contained (in mM): Cs-glutamate 145, NaCl 8, MgCl2 1, Cs-BAPTA 10, pH 7.2 adjusted with CsOH. In some experiments, BAPTA was omitted from the pipette solution and 100 μM fura-2 was added for the purpose of fluorimetric monitoring of intracellular Ca^2+ concentration. […] The agonists were dissolved in the standard intracellular solution. Patch-clamp experiments were performed in the tight-seal whole-cell configuration at 21-25° C. High-resolution current recordings were acquired by a computer-based patch-clamp amplifier system (EPC-9, HEKA, Lambrecht, Germany). Patch pipettes had resistances between 2-4 MW after filling with the standard intracellular solution. Immediately following establishment of the 5 whole-cell configuration, voltage ramps of 50 ms duration spanning the voltage range of −100 to +100 mV were delivered from a holding potential of 0 mV at a rate of 0.5 Hz over a period of 200 to 400 seconds. All voltages were corrected for a liquid junction potential of 10 mV between external and internal solutions. Currents were filtered at 2.9 kHz and digitized at 100 μs intervals. Capacitive currents and series resistance were determined and corrected before each voltage ramp using the automatic capacitance compensation of the EPC-9. For analysis, the very first ramps prior to current activation were digitally filtered at 2 kHz, pooled and used for leak-subtraction of all subsequent current records. […]

[4] = biological target: T3, LTRPC2 (Homo sapiens, UniProt O94759); assay: ADPR-dependent gating of LTRPC2, whole-cell patch-clamp in tetracycline-induced HEK-293 cells expressing FLAG-LTRPC2; type: cell-based
T3 construct: beginning at amino acid 3 and extending to amino acid 1503; FLAG tag within the printed N-terminal leader […]; expressed in transfected cells
Method: 10^6 cells were analyzed for expression of a FLAG-reactive protein by anti-FLAG immunoprecipitation/anti-FLAG immunoblotting. […] The open symbols represent superimposed analyses of responses obtained from (i) wild-type HEK-293 cells (WT) perfused with standard internal solution in the absence of ADPR (n=3±sem); (ii) uninduced cells perfused with standard internal solution in the absence of ADPR (n=5±sem); (iii) uninduced HEK-293 cells perfused with standard solution containing 1 mM ADPR (n=3±sem); (iv) tet-induced HEK-293 cells perfused with standard internal solution without ADPR present (n=4±sem). […] The filled symbols indicate the time points at which individual high-resolution data traces were extracted for presentation as I/V curves in FIG. 3(F). […] Ramp currents were recorded in response of a standard voltage ramp stimulus (−100 mV to +100 mV in 50 ms).
FIG. 4 depicts the characterization of ADPR-dependent currents in LTRPC2-expressing in HEK-293 cells. […] HEK-293 cells expressing FLAG-LTRPC2 were perfused with defined ADPR concentrations ranging from […] to 1 mM, and currents were measured at −80 mV as in FIG. 3(D). The maximum current amplitude of individual cells was derived by analyzing the time course of current development (see e.g., FIGS. 3(C) and 3(D)) and fitting a Boltzmann curve to the rising phase of the developing cationic conductance. Peak current amplitudes were averaged and plotted versus ADPR concentration (n=5 to 12±sem). […] FIG. 4(B) depicts the kinetics of ADPR-dependent gating of LTRPC2. The temporal development of ADPR-gated currents was assessed as described in FIG. 4(A) by fitting a Boltzmann curve to the rising phase of the developing cationic conductance. The mid-point values of this analysis correspond to the time of half-maximal current activation, and are plotted as a function of ADPR concentration. […] HEK-293 cells expressing FLAG-LTRPC2 were perfused with 100 μM ADPR. 80 seconds into the experiment, and indicated by the bar, isotonic CaCl2 solution (120 mM CaCl2, 300 mOsm) was applied externally for 20 seconds.
Wild type and tetracycline-inducible HEK-293 FLAG-LTRPC2 expressing cells were cultured at 37° C./5% CO2 in DMEM supplemented with 10% FBS and 2 mM glutamine. The medium was supplemented with blasticidin (5 μg/ml; Invitrogen) and zeocin (0.4 mg/ml; Invitrogen). Cells were resuspended in media containing 1 μg/ml tetracycline (Invitrogen) 24 hours before experiments.
For patch-clamp experiments, cells grown on coverslips were transferred to the recording chamber and kept in a standard modified Ringer's solution of the following composition (in mM): NaCl 145, KCl 2.8, CaCl2 1, MgCl2 2, glucose 10, Hepes-NaOH 10, pH 7.2. Intracellular pipette-filling solutions contained (in mM): Cs-glutamate 145, NaCl 8, MgCl2 1, Cs-BAPTA 10, pH 7.2 adjusted with CsOH.

T1 sequence (O94759 1197-1503): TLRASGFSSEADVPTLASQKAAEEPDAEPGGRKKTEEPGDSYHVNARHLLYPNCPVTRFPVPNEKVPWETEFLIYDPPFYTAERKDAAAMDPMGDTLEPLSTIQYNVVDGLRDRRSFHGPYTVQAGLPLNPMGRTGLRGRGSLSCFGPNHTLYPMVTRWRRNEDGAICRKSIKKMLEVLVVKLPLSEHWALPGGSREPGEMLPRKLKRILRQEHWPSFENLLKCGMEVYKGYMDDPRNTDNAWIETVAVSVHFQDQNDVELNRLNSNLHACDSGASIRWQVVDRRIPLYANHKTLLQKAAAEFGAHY
T3 sequence (O94759 3-1503): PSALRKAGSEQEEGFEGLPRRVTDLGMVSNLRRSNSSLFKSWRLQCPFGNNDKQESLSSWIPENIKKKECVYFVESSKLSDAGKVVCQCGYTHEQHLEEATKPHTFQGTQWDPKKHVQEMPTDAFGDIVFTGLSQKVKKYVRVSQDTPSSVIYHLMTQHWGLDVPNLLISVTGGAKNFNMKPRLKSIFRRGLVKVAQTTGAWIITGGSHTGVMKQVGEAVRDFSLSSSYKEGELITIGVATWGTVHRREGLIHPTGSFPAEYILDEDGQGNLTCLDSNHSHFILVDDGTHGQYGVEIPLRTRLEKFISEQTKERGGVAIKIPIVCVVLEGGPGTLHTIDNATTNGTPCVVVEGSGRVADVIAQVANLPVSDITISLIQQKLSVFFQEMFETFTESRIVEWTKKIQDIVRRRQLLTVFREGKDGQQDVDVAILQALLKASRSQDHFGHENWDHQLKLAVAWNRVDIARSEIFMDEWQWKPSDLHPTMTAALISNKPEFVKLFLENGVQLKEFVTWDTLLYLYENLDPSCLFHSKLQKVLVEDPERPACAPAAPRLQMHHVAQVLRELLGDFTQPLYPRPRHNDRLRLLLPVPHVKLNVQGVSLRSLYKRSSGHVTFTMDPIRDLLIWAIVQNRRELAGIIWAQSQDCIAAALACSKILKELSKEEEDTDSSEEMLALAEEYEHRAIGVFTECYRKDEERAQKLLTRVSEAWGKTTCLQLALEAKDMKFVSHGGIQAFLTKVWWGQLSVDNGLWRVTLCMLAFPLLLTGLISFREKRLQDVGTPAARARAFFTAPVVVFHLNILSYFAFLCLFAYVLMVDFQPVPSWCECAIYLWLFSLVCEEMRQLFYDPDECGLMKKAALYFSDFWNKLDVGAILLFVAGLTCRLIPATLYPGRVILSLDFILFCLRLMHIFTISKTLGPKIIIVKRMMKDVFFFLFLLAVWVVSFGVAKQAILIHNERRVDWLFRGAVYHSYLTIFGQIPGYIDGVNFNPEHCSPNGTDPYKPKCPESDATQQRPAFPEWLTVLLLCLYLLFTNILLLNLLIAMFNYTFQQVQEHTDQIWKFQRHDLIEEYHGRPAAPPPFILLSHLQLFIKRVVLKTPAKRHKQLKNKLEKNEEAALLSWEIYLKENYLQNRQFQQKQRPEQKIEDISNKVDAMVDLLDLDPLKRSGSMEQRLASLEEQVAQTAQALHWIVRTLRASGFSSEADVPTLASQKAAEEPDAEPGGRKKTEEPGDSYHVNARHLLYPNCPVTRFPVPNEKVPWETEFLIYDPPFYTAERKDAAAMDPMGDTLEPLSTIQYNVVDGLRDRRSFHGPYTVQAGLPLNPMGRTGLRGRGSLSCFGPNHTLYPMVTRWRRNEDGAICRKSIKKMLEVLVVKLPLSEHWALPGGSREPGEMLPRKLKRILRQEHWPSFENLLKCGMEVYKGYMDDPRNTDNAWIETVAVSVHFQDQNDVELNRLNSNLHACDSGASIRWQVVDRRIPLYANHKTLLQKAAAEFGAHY

SMILES	hydrolysis as substrate by NUDT9-H [1]	hydrolysis as substrate by NUDT9 [2]	other results
Nc1ncnc2c1ncn2[C@@H]1O[C@H](COP(=O)(O)OP(=O)(O)O[C@H]2O[C@H](CO)[C@@H](O)[C@H](O)[C@H]2O)[C@@H](O)[C@H]1O [ADP-lucose]	not hydrolyzed	not hydrolyzed	
Nc1ncnc2c1ncn2[C@@H]1O[C@H](COP(=O)(O)OP(=O)(O)OC[C@H]2OC(O)[C@H](O)[C@@H]2O)[C@@H](O)[C@H]1O (stereo partly drawn) [ADPR, Adenosine 5-diphospho (ADP)-ribose]			Hill coefficient ([3]; [Ca2+]i buffered to 100 nM): 8; EC50 ([3]; [Ca2+]i buffered to 100 nM): 130 µM; Hill coefficient ([3]; unbuffered): 8; EC50 ([3]; unbuffered (exogenous buffers omitted)): 40 µM; Hill coefficient of dose-response curve ([4]; HEK-293 cells expressing FLAG-LTRPC2, currents at −80 mV): 9; EC50 ([4]; HEK-293 cells expressing FLAG-LTRPC2, intracellular perfusion, peak currents at −80 mV, read-out: apparent EC50 of ADPR-dependent gating of LTRPC2): 90 µM; cells that generated currents above control levels ([4]; cells perfused with 60 μM ADPR or higher (n=38)): 91%; intracellular concentration at which gating of the LTRPC2 channel begins ([4]; intracellular ADPR): 60 to 100 µM; intracellular concentration at which saturation occurs ([4]; intracellular ADPR): ~300 µM; membrane currents at −80 mV ([4]; tet-induced HEK-293 cells expressing FLAG-LTRPC2 perfused with 100 μM ADPR): large inward currents
Nc1nc2c(ncn2[C@@H]2O[C@H](COP(=O)(O)OP(=O)(O)O[C@H]3O[C@H](CO)[C@@H](O)[C@H](O)[C@@H]3O)[C@@H](O)[C@H]2O)c(=O)[nH]1 [GDP-mannose]	not hydrolyzed	not hydrolyzed	
NC(=O)C1=CN([C@@H]2O[C@H](COP(=O)(O)OP(=O)(O)OC[C@H]3O[C@@H](n4cnc5c(N)ncnc54)[C@H](O)[C@@H]3O)[C@@H](O)[C@H]2O)C=CC1 [NADH]	not hydrolyzed	not hydrolyzed	
NC(=O)c1ccc[n+]([C@@H]2O[C@H](COP(=O)([O-])OP(=O)(O)OC[C@H]3O[C@@H](n4cnc5c(N)ncnc54)[C@H](O)[C@@H]3O)[C@@H](O)[C@H]2O)c1 [NAD^+, nicotinamide adenine dinucleotide]	not hydrolyzed	not hydrolyzed	
Nc1ccn([C@H]2C[C@H](O)[C@@H](COP(=O)(O)OP(=O)(O)OP(=O)(O)O)O2)c(=O)n1 [deoxy-CTP]	not hydrolyzed	not hydrolyzed	
Nc1nc2c(ncn2[C@H]2C[C@H](O)[C@@H](COP(=O)(O)OP(=O)(O)OP(=O)(O)O)O2)c(=O)[nH]1 [deoxy-GTP]	not hydrolyzed	not hydrolyzed	
Cc1cn([C@H]2C[C@H](O)[C@@H](COP(=O)(O)OP(=O)(O)OP(=O)(O)O)O2)c(=O)[nH]c1=O [deoxy-TTP]	not hydrolyzed	not hydrolyzed	
